{"source": "ChEMBL document CHEMBL3879885", "about": "(2006)", "data": [{"target": "Potassium voltage-gated channel subfamily A member 2 (Homo sapiens, UniProt P16389)", "sequence (P16389 whole entry)": "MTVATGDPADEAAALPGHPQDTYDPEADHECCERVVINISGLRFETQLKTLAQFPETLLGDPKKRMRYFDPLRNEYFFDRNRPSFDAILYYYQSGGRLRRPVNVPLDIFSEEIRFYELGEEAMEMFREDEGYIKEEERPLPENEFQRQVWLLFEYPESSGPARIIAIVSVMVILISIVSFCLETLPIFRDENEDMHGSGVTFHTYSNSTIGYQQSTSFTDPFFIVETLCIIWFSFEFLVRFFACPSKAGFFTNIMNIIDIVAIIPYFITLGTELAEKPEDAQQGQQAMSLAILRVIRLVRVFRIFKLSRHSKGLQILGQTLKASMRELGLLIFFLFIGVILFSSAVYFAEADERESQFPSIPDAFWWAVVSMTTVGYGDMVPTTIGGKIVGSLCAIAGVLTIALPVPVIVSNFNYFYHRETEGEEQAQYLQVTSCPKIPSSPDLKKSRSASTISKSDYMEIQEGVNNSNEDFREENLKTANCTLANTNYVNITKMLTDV", "assay": "Inhibition of Kv1.2 (unknown origin)", "settings": "not given", "units": {"EC50": "nM"}, "values": [{"compound": "O=c1ccc2c(OCCCCOc3ccccc3)c3ccoc3cc2o1", "EC50": 250}]}, {"target": "T1, Potassium voltage-gated channel subfamily A member 3 (Homo sapiens, UniProt P22001)", "T1 sequence (P22001 whole entry)": "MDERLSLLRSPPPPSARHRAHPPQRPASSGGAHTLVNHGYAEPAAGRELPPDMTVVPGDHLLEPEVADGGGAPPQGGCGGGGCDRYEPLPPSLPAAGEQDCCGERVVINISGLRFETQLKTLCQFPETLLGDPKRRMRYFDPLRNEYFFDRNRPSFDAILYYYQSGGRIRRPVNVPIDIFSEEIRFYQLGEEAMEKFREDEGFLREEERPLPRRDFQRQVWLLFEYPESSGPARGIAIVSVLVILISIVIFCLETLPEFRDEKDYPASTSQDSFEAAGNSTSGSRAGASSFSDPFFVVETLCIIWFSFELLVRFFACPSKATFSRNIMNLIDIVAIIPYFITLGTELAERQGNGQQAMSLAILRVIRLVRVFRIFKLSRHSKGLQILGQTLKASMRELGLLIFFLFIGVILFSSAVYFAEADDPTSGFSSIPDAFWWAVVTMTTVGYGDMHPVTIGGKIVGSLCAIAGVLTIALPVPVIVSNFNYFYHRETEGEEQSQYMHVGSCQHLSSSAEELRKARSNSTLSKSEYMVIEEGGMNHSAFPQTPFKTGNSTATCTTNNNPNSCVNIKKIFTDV", "assay": "Inhibition of Kv1.3 (unknown origin)", "format": "single protein", "settings": "not given", "units": {"EC50": "nM"}, "values": [{"compound": "O=C(CCCOc1c2ccoc2cc2oc(=O)ccc12)c1ccccc1", "EC50": 31}, {"compound": "CCc1ccc(OCCCCOc2c3ccoc3cc3oc(=O)ccc23)cc1", "EC50": 13}, {"compound": "Cc1ccc(OCCCCOc2c3ccoc3cc3oc(=O)ccc23)cc1", "EC50": 7}, {"compound": "COc1cccc(OCCCOc2c3ccoc3cc3oc(=O)ccc23)c1", "EC50": 45}, {"compound": "O=c1ccc2c(OCCCCCOc3ccccc3)c3ccoc3cc2o1", "EC50": 15}, {"compound": "O=c1ccc2c(OCCCCOCc3ccccc3)c3ccoc3cc2o1", "EC50": 49}, {"compound": "N#CCCCCOc1c2occc2cc2ccc(=O)oc12", "EC50": 5000}, {"compound": "O=c1ccc2c(OCCCOc3ccccc3)c3ccoc3cc2o1", "EC50": 15}, {"compound": "O=c1ccc2c(OCCCCOc3ccc4ccccc4c3)c3ccoc3cc2o1", "EC50": 12}, {"compound": "O=c1ccc2c(OCCCCOc3cccc4ccccc34)c3ccoc3cc2o1", "EC50": 20}, {"compound": "O=c1ccc2c(OCCCOCc3ccccc3)c3ccoc3cc2o1", "EC50": 50}, {"compound": "COc1ccc(OCCCCOc2c3ccoc3cc3oc(=O)ccc23)cc1", "EC50": 8}, {"compound": "O=c1ccc2c(OCCCCOc3ccc(Oc4ccccc4)cc3)c3ccoc3cc2o1", "EC50": 16}, {"compound": "N#CCCCCOc1c2ccoc2cc2oc(=O)ccc12", "EC50": 1300}, {"compound": "COc1cc(OC)cc(OCCCCCOc2c3ccoc3cc3oc(=O)ccc23)c1", "EC50": 32}, {"compound": "COc1cc(OC)cc(OCCCCOc2c3ccoc3cc3oc(=O)ccc23)c1", "EC50": 120}, {"compound": "O=c1ccc2c(OCCCCOc3ccc([N+](=O)[O-])cc3)c3ccoc3cc2o1", "EC50": 7}, {"compound": "COc1ccc2sc(SCCCCOc3c4ccoc4cc4oc(=O)ccc34)nc2c1", "EC50": 35}, {"compound": "CCc1ccc(OCCCCCOc2c3ccoc3cc3oc(=O)ccc23)cc1", "EC50": 35}, {"compound": "O=c1ccc2c(OCCCCSc3ncccn3)c3ccoc3cc2o1", "EC50": 50}, {"compound": "COc1cc(OC)cc(OCCCOc2c3ccoc3cc3oc(=O)ccc23)c1", "EC50": 75}, {"compound": "O=c1ccc2c(OCCOCc3ccccc3)c3ccoc3cc2o1", "EC50": 10}, {"compound": "O=c1ccc2c(OCCCCOc3ccc(Cl)cc3)c3ccoc3cc2o1", "EC50": 5}, {"compound": "O=c1ccc2c(OCCCCOc3cccc(C(F)(F)F)c3)c3ccoc3cc2o1", "EC50": 65}, {"compound": "O=c1ccc2c(OCCCOc3ccc(Cl)cc3)c3ccoc3cc2o1", "EC50": 10}, {"compound": "Cc1nnc(SCCCCOc2c3ccoc3cc3oc(=O)ccc23)s1", "EC50": 175}, {"compound": "CCc1ccc(OCCCOc2c3ccoc3cc3oc(=O)ccc23)cc1", "EC50": 14}, {"compound": "O=c1ccc2c(OCCCCn3cccn3)c3ccoc3cc2o1", "EC50": 450}, {"compound": "Cc1ccc(OCCCCOc2c3ccoc3cc3oc(=O)ccc23)c([N+](=O)[O-])c1", "EC50": 700}, {"compound": "O=c1ccc2ccc(OCCCCOc3c4ccoc4cc4oc(=O)ccc34)cc2o1", "EC50": 125}, {"compound": "COc1cccc(OCCCCOc2c3ccoc3cc3oc(=O)ccc23)c1", "EC50": 21}, {"compound": "N#CCCCOc1c2ccoc2cc2oc(=O)ccc12", "EC50": 5000}, {"compound": "N#CCCCOc1c2occc2cc2ccc(=O)oc12", "EC50": 5000}]}, {"target": "T1, Potassium voltage-gated channel subfamily A member 3", "assay": "Ratio of IC50 for Kv1.3 in human central memory T cells to IC50 for Kv1.3 in CD4+ MBP-specific multiple sclerosis patient effector memory T lymphocytes stimulated with 3 times MBP", "format": "cell-based", "settings": "T-cell", "values": [{"compound": "CC[C@H](C)[C@@H]1NC(=O)[C@@H](NC(=O)[C@H](CO)NC(=O)[C@@H](N)CCCNC(=N)N)CSSC[C@@H](C(=O)O)NC(=O)[C@H]([C@@H](C)O)NC(=O)CNC(=O)[C@@H]2CSSC[C@@H]3NC(=O)[C@H](CCC(N)=O)NC(=O)[C@H](Cc4ccccc4)NC(=O)[C@H](C)NC(=O)[C@H]([C@@H](C)O)NC(=O)[C@H](CSSC[C@H](NC(=O)[C@H](Cc4ccccc4)NC(=O)[C@@H](CO)NC(=O)[C@@H](CC(C)C)NC(=O)[C@H](CCCNC(=N)N)NC(=O)[C@H](Cc4ccc(O)cc4)NC(=O)[C@H](CCCCN)NC(=O)[C@H](CCSC)NC(=O)[C@H](CO)NC(=O)[C@H](Cc4cnc[nH]4)NC(=O)[C@H](CCCCN)NC3=O)C(=O)N[C@@H](CCCNC(=N)N)C(=O)N[C@@H](CCCCN)C(=O)N[C@@H]([C@@H](C)O)C(=O)N2)NC(=O)[C@H](CCCNC(=N)N)NC(=O)[C@H](CO)NC(=O)[C@H](CCCCN)NC(=O)[C@@H]2CCCN2C(=O)[C@H]([C@@H](C)CC)NC(=O)[C@H]([C@@H](C)O)NC(=O)[C@H](CC(=O)O)NC1=O", "Ratio IC50": 10}]}]}
